The EC50 is the concentration needed to bring the measured effect to its halfway point.

Data on three molecules can be found in US20120059037A1, “SUBSTITUTED PYRIDINE DERIVATIVES AND THEIR MEDICAL USE” (NEUROSEARCH A/S, priority 2009, published 2012).

The target in the assay is T1, human Kv7.2+3 (Homo sapiens, UniProt O43525+O43526).
T1 construct: expressed in transfected cells; host or cells: HEK293
As to the kind of experiment: FLIPR-based characterization of Kv7.2+3 modulators (thallium influx). Type of assay: cell-based. Conditions: HEK293 cells over-expressing human Kv7.2+3; for EC50: Tl+ influx, BTC-AM, FLIPR, relative to retigabine control responses; for Efficacy: maximal response relative to the reference (retigabine) response. The method, then: This experiment determines the ability of a test compound to modulate the activity of Kv7.2+3 channels heterologously expressed in human HEK293 cells. The ability is determined relative to retigabine. The activity is determined using a standard thallium (I) sensitive assay, e.g. using a fluorometric method in a Fluorescent Image Plate Reader (FLIPR) as described below in more detail.
Full concentration/response curves are generated and EC50 values are calculated based on max values. EC50 values (Effective Concentration) represent the concentration of the test substance, at which 50% of the channel activity is obtained when compared to retigabine control responses. Maximal response determined relative to the reference (retigabine) response is calculated.
Human HEK293 cells over-expressing human Kv7.2+3 are grown in culture medium (DMEM supplemented with 10% foetal bovine serum), in polystyrene culture flasks ([…]) in a humidified atmosphere of 5% CO2 in air, at 37° C. Cell confluence should be 80-90% on day of plating. Cells are rinsed with 4 ml of PBS (phosphate buffered saline) and incubated 2 min with 1 ml of Trypsin-EDTA. After addition of 25 ml of culture medium cells are re-suspended by trituration with a 25 ml pipette.
The cells are seeded at a density of ˜3×10^6 cells/ml (25 μl/well) in black-walled, clear bottom, 384-well plates pre-treated with 0.01 g/l poly-D-lysin (20 μl/well for ≧30 min). Plated cells were allowed to proliferate for 24 h before loading with dye.
BTC-AM (50 mg, Invitrogen) is added 25.5 μl DMSO. The BTC-AM stock solution (2 mM) is diluted to a final concentration of 2 μM in Cl^− free assay buffer (in mM: 140 Na^+-gluconate, 2.5 K^+-gluconate, 6 Ca2^+-gluconate, 1 Mg^2+ gluconate, 5 glucose, 10 HEPES, pH 7.3) containing 2 μM ouabain, 2 mM amaranth and 1 mM tartrazine.
The culture medium is aspirated from the wells, the cells are washed thrice in Cl^− free assay buffer, and 25 μl of the BTC-AM loading solution is added to each well. The cells are incubated at 37° C. for 60 min.
After the loading period, the Tl^+-sensitive BTC fluorescence signal is measured over time using a FLIPR.
• Temperature: Room temp. • First addition: 12 μl test or control compound after 15 sec at a rate of 30 μl/sec and starting height of 20 μl • Second addition: 12 μl stimulus buffer (Cl^− free assay buffer supplemented with 1 mM Tl2SO4, 5 mM K2SO4 as well as the quenchers amaranth (2 mM) and tartrazine (1 mM)) is added after an additional 3 minutes at a rate of 30 μl/sec and starting height of 30 μl • Reading intervals: First sequence—3 sec×5, 2 sec×24 and 5 sec×25 • Second sequence—1 sec×5, 2 sec×24 and 5 sec×36 Addition plates (compound plate and stimulus plate) are placed in positions 2 and 3, respectively. Cell plates are placed in position 1 and run using the “KCNQ (two additions)” program. FLIPR will then take the appropriate measurements in accordance with the interval settings above. Fluorescence obtained after stimulation is corrected for the mean basal fluorescence (in Cl^− free assay buffer).
Full concentration/response curves are generated and EC50 values (“Effective Concentration”; the concentration at which 50% of the channel activity is obtained when compared to retigabine control responses) are calculated based on peak values. Maximal response determined relative to the reference (retigabine) response is calculated.

For `O=C(Cc1cc(F)cc(F)c1)Nc1ccc(NCc2ccc(Cl)nc2)nc1N1CCCC1` [Compound 1.1, N-{6-[(6-Chloro-pyridin-3-ylmethyl)-amino]-2-pyrrolidin-1-yl-pyridin-3-yl}-2-(3,5-difluoro-phenyl)-acetamide], a half-maximal effect (EC50) was put at 66 nM and the Efficacy is 100%.

In the case of `CC(C)(C)CC(=O)Nc1ccc(NCc2ccc(Cl)nc2)nc1N1CCCC1` [Compound 1.3, N-{6-[(6-Chloro-pyridin-3-ylmethyl)-amino]-2-pyrrolidin-1-yl-pyridin-3-yl}-3,3-dimethyl-butyramide], the EC50 was found to be 66 nM and the Efficacy stood at 100%.

The molecule `O=C(Cc1cc(F)cc(F)c1)Nc1ccc(NCc2cccnc2)nc1N1CCCC1` [Compound 1.2, 2-(3,5-Difluoro-phenyl)-N-{6-[(pyridin-3-ylmethyl)-amino]-2-pyrrolidin-1-yl-pyridin-3-yl}-acetamide] had a concentration giving a half-maximal response (EC50) of 20 nM and an Efficacy of 108%.
